Laboratory results as given in US20170233413A1, “SUBSTITUTED ANNULATED PYRIMIDINES AND USE THEREOF” (Bayer Pharma Aktiengesellschaft, priority 2014, published 2017).

Experiments:
[1] = molecular target: T1, recombinant guanylate cyclase reporter cell line (Rattus norvegicus, UniProt P19686+P20595); assay: Effect on a recombinant guanylate cyclase reporter cell line; type: cell-based; details: MEC = minimum effective concentration; in some cases means of individual determinations
T1 construct: expressed in transfected cells
T1 sequence (P19686 1-690): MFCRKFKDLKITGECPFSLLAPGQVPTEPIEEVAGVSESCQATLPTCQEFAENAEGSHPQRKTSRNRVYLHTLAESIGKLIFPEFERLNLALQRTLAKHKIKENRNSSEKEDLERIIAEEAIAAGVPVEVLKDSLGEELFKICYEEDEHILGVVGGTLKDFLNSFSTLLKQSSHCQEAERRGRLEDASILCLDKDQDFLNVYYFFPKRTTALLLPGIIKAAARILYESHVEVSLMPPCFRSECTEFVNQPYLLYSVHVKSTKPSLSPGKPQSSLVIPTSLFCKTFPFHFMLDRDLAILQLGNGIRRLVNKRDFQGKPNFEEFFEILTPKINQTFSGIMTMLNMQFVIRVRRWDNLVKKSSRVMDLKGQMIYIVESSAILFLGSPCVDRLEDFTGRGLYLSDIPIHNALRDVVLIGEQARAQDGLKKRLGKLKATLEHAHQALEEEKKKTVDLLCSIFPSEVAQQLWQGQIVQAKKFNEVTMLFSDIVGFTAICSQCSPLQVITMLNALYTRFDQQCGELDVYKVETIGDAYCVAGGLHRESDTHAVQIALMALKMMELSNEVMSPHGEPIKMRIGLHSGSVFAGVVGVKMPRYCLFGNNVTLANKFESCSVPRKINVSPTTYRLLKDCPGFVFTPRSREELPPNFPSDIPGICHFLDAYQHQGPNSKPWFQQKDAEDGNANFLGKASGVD
T1 sequence (P20595 1-619): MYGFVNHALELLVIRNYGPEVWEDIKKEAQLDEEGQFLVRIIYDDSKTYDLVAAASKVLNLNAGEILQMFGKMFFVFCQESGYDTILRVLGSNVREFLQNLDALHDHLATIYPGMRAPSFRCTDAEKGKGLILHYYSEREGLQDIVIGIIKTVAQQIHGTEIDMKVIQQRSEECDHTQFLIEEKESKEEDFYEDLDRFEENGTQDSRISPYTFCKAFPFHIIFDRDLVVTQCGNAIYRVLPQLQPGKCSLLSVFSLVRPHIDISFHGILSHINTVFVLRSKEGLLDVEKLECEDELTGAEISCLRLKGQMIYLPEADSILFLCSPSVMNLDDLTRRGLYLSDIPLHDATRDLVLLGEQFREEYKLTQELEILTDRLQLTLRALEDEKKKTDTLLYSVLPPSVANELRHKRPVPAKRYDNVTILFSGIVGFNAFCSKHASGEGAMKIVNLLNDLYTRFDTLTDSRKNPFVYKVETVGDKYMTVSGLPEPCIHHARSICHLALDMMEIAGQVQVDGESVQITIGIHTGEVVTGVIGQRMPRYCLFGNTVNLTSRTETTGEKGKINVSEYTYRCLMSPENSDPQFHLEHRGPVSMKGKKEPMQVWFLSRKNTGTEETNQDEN
Description: B-2. Effect on a Recombinant Guanylate Cyclase Reporter Cell Line
The cellular activity of the compounds of the invention is determined using a recombinant guanylate cyclase reporter cell line, as described in F. Wunder et al., Anal. Biochem. 2005, 339, 104-112. Representative values (MEC=minimum effective concentration) for the compounds of the invention are shown in the table below (Table 1B; in some cases as means of individual determinations): […]

[2] = molecular target: T2, human phosphodiesterase 5 (PDE 5) (Homo sapiens, UniProt O76074); assay: Inhibition of human phosphodiesterase 5 (PDE 5); type: biochemical; details: PDE 5 preparation from human platelets; in some cases means of individual determinations
T2 construct: PDE 5 preparations are obtained from human platelets by disruption; from tissue; host or cells: human platelets
Description: B-3. Inhibition of Human Phosphodiesterase 5 (PDE 5)
PDE 5 preparations are obtained from human platelets by disruption (Microfluidizer®, 800 bar, 3 passes), followed by centrifugation (75 000 g, 60 min, 4° C.) and ion exchange chromatography of the supernatant on a Mono Q 10/10 column (linear sodium chloride gradient, elution with a 0.2-0.3M solution of sodium chloride in buffer (20 mM Hepes pH 7.2, 2 mM magnesium chloride). Fractions having PDE 5 activity are combined (PDE 5 preparation) and stored at −80° C.
To determine their in vitro action on human PDE 5, the test substances are dissolved in 100% DMSO and serially diluted. Typically, dilution series (1:3) from 200 μM to 0.091 μM are prepared (resulting final concentrations in the test: 4 μM to 0.0018 μM). In each case 2 μl of the diluted substance solutions are placed into the wells of microtitre plates (Isoplate-96/200W; Perkin Elmer). Subsequently, 50 μl of a dilution of the above-described PDE 5 preparation are added. The dilution of the PDE 5 preparation is chosen such that during the later incubation less than 70% of the substrate are converted (typical dilution: 1:100; dilution buffer: 50 mM tris/hydrochloric acid pH 7.5, 8.3 mM magnesium chloride, 1.7 mM EDTA, 0.2% BSA). The substrate, [8-^3H] cyclic guanosine-3′,5′-monophosphate (1 μCi/μl; Perkin Elmer), is diluted 1:2000 with assay buffer (50 mM tris/hydrochloric acid pH 7.5, 8.3 mM magnesium chloride, 1.7 mM EDTA) to a concentration of 0.0005 μCi/μl. By addition of 50 μl (0.025 μCi) of the diluted substrate, the enzyme reaction is finally started. The test mixtures are incubated at room temperature for 60 min and the reaction is stopped by adding 25 μl of a suspension of 18 mg/ml yttrium scintillation proximity beads in water (phosphodiesterase beads for SPA assays, RPNQ 0150, Perkin Elmer). The microtitre plates are sealed with a film and left to stand at room temperature for 60 min. Subsequently, the plates are analysed for 30 s per well in a Microbeta scintillation counter (Perkin Elmer). IC50 values are determined using the graphic plot of the substance concentration against percentage PDE 5 inhibition.

| Compound | MEC [1] [µM] | IC50 [2] [nM] |
| --- | --- | --- |
| COCCNC(=O)c1nc(-c2nn(Cc3ncccc3F)c3ncc(F)cc23)nc2c1C(C)(C)C(=O)N2 [Example 36] | 3 | 73 |
| CC1(C(F)(F)F)C(=O)Nc2nc(-c3nn(Cc4ncccc4F)c4ncc(F)cc34)nc(C(N)=O)c21 (racemic) [Example 21, rac-2-{5-Fluoro-1-[(3-fluoropyridin-2-yl)methyl]-1H-pyrazolo[3,4-b]pyridin-3-yl}-5-methyl-6-oxo-5-(trifluoromethyl)-6,7-dihydro-5H-pyrrolo[2,3-d]pyrimidine-4-carboxamide] | 3 | 230 |
| Cc1nc2c(cc1F)c(-c1nc3c(c(C(N)=O)n1)C(C)(C)C(=O)N3)nn2Cc1c(F)ccc(F)c1F [Example 6, 2-[5-Fluoro-6-methyl-1-(2,3,6-trifluorobenzyl)-1H-pyrazolo[3,4-b]pyridin-3-yl]-5,5-dimethyl-6-oxo-6,7-dihydro-5H-pyrrolo[2,3-d]pyrimidine-4-carboxamide] | 0.2 | 140 |
| CC(N)(CNC(=O)c1nc(-c2nn(Cc3ncccc3F)c3ncc(F)cc23)nc2c1C(C)(C)C(=O)N2)CC(F)F (single isomer, unassigned) [Example 56] | 3 | 120 |
| CC(C)(O)CNC(=O)c1nc(-c2nn(Cc3ccccc3F)c3ncccc23)nc2c1C(C)(C)C(=O)N2 [Example 25] | 0.3 | 2 |
| CN(CC1CC1)C(=O)c1nc(-c2nn(Cc3ccccc3F)c3cc(Cl)ccc23)nc2c1C(C)(C)C(=O)N2 [Example 47] | 0.03 | 730 |
| CC(C)(O)CNC(=O)c1nc(-c2nn(Cc3ccccc3F)c3ncc(F)cc23)nc2c1C(C)(C)C(=O)N2 [Example 29] | 0.3 | 12 |
| CC1(C)C(=O)Nc2nc(-c3nn(Cc4ccccc4F)c4cc(Cl)ccc34)nc(C(=O)NC3CC3)c21 [Example 43] | 0.3 | 14 |
| CN(C(=O)c1nc(-c2nn(Cc3ccccc3F)c3ncc(F)cc23)nc2c1C(C)(C)C(=O)N2)C1CC1 [Example 52] | 0.01 | 150 |

Other lines, results leading:

| MEC [1] [µM] | IC50 [2] [nM] | Compound |
| --- | --- | --- |
| 0.1 | 41 | CC1(C)C(=O)Nc2nc(-c3nn(Cc4ccccc4F)c4ncccc34)nc(C(=O)NCc3ccccc3)c21 [Example 115, N-benzyl-2-[1-(2-fluorobenzyl)-1H-pyrazolo[3,4-b]pyridin-3-yl]-5,5-dimethyl-6-oxo-6,7-dihydro-5H-pyrrolo[2,3-d]pyrimidine-4-carboxamide] |
| 0.1 | 38 | CC(C)=CCNC(=O)c1nc(-c2nn(Cc3ccccc3F)c3ncccc23)nc2c1C(C)(C)C(=O)N2 [Example 85, 2-[1-(2-fluorobenzyl)-1H-pyrazolo[3,4-b]pyridin-3-yl]-5,5-dimethyl-N-(3-methylbut-2-en-1-yl)-6-oxo-6,7-dihydro-5H-pyrrolo[2,3-d]pyrimidine-4-carboxamide] |
| 1 | 330 | CN(C)CCNC(=O)c1nc(-c2nn(Cc3ccccc3F)c3ncccc23)nc2c1C(C)(C)C(=O)N2 [Example 128, N-[2-(dimethylamino)ethyl]-2-[1-(2-fluorobenzyl)-1H-pyrazolo[3,4-b]pyridin-3-yl]-5,5-dimethyl-6-oxo-6,7-dihydro-5H-pyrrolo[2,3-d]pyrimidine-4-carboxamide] |
| 0.1 | 55 | CC1(C)C(=O)Nc2nc(-c3nn(Cc4ccccc4F)c4ncccc34)nc(C(=O)Nc3nncs3)c21 [Example 93, 2-[1-(2-fluorobenzyl)-1H-pyrazolo[3,4-b]pyridin-3-yl]-5,5-dimethyl-6-oxo-N-(1,3,4-thiadiazol-2-yl)-6,7-dihydro-5H-pyrrolo[2,3-d]pyrimidine-4-carboxamide] |
| 0.03 | 93 | CC(C)N(C)C(=O)c1nc(-c2nn(Cc3ccccc3F)c3ncccc23)nc2c1C(C)(C)C(=O)N2 [Example 112, 2-[1-(2-fluorobenzyl)-1H-pyrazolo[3,4-b]pyridin-3-yl]-N,5,5-trimethyl-6-oxo-N-(propan-2-yl)-6,7-dihydro-5H-pyrrolo[2,3-d]pyrimidine-4-carboxamide] |
